Literature values in patent US20090170848A1, “THIAZOLONES FOR USE AS PI3 KINASE INHIBITORS” (SMITHKLINE BEECHAM CORPORATION, priority 2006, published 2009).
Where two headings read alike, the source gives them in different places.

What was measured:
CK2 protein kinase = CK2 protein kinase (Homo sapiens, UniProt P68400)
Sequence of CK2 protein kinase (P68400 whole entry): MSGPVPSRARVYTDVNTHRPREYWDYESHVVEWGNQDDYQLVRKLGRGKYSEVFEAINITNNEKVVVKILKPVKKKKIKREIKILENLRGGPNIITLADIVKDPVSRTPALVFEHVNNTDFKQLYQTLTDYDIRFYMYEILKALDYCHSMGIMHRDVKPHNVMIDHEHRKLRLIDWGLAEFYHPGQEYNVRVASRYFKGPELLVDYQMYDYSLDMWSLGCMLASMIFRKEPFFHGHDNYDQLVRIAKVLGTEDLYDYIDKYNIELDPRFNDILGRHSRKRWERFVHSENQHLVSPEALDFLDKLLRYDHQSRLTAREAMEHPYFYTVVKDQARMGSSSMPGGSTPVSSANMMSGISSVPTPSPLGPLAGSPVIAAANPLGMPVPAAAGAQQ

SMILES	IC50 (Class I PI3-kinases; each of the four members of Class I PI3-kinases, read-out: IC50 values against each of the various Class I PI3-kinases)	IC50 (Class I PI3-kinases; read-out: IC50 values against each of these PI3-kinases)	IC50 (CK2 protein kinase)
COC[C@H]1OC(=O)c2coc3c2[C@@]1(C)C1=C(C3=O)[C@@H]2CCC(=O)[C@@]2(C)C[C@H]1OC(C)=O [wortmannin]	0.001 to 0.01 µM	–	–
O=c1cc(N2CCOCC2)oc2c(-c3ccccc3)cccc12 [LY294002]	–	15 to 20 µM	5 to 10 µM
